Source: US4435583A, “2-Halo-substituted monic acid A useful as antibacterial compounds” (Beecham Group p.l.c., priority 1981, dated 1984)
≈ marks a conversion by molar mass, not a printed value.

Assays:
Assay type in all cases: cell-based
M. suipneumoniae HK(2) = test: In vitro anti-mycoplasmal MIC; settings: Friis broth, 0.9% agarose, 6 days, 37° C.
[1] = test system: M. suipneumoniae J2206/183b; test: In vitro anti-mycoplasmal MIC; settings: Friis broth, 0.9% agarose, 6 days, 37° C.
M. suipneumoniae LABER = test: In vitro anti-mycoplasmal MIC; settings: Mesomycoplasma hyopneumoniae, 144 h, Friis broth, 0.9% agarose, 6 days, 37° C.
[2] = test system: M. suipneumoniae ATCC 25095; test: In vitro anti-mycoplasmal MIC; settings: Friis broth, 0.9% agarose, 6 days, 37° C.
M. hyorhinis ATCC 23234 = test: In vitro anti-mycoplasmal MIC; settings: Mesomycoplasma hyorhinis, ATCC23234, 144 h, Friis broth, 0.9% agarose, 6 days, 37° C.
M. gallisepticum S6 = test: In vitro anti-mycoplasmal MIC; settings: Mycoplasmoides gallisepticum, 144 h, Friis broth, 0.9% agarose, 6 days, 37° C., read-out: MIC
Bord. bronchiseptica B09 = test: MIC against veterinary bacteria; settings: Diagnostic Sensitivity Test Agar, 18 hours, 37° C.
Experimental: (§1) The values were determined using a two fold serial dilutions in Diagnostic Sensitivity Test Agar with an inoculum of 10^4 organisms and incubation for 18 hours at 37° C.

[3] = test system: Corynebacterium pyogenes CY1; test: MIC against veterinary bacteria; settings: Rhodococcus (subgen. Prescottella) equi, Diagnostic Sensitivity Test Agar, 18 hours, 37° C., read-out: MIC
Experimental: as §1

E. coli E1 = test: MIC against veterinary bacteria; settings: Escherichia coli, Diagnostic Sensitivity Test Agar, 18 hours, 37° C., read-out: MIC
Experimental: as §1

E. coli NCTC 10418 [4] = test: MIC against veterinary bacteria; settings: Escherichia coli, NCTC10418, Diagnostic Sensitivity Test Agar, 18 hours, 37° C., read-out: MIC
Experimental: as §1

Past. haemolytica PA5 = test: MIC against veterinary bacteria; settings: Diagnostic Sensitivity Test Agar, 18 hours, 37° C.
Experimental: as §1

Past. multocida PA1 = test: MIC against veterinary bacteria; settings: Diagnostic Sensitivity Test Agar, 18 hours, 37° C.
Experimental: as §1

Past. multocida PA2 = test: MIC against veterinary bacteria; settings: Diagnostic Sensitivity Test Agar, 18 hours, 37° C.
Experimental: as §1

S. dublin S7 = test: MIC against veterinary bacteria; settings: Salmonella enterica, Diagnostic Sensitivity Test Agar, 18 hours, 37° C., read-out: MIC
Experimental: as §1

S. typhimurium S18 = test: MIC against veterinary bacteria; settings: Salmonella enterica, Diagnostic Sensitivity Test Agar, 18 hours, 37° C., read-out: MIC
Experimental: as §1

Staph. aureus B4 = test: MIC against veterinary bacteria; settings: Diagnostic Sensitivity Test Agar, 18 hours, 37° C.
Experimental: as §1

Staph. aureus Oxford [5] = test: MIC against veterinary bacteria; settings: Diagnostic Sensitivity Test Agar, 18 hours, 37° C.
Experimental: as §1

Strep. agalactiae SPA1 = test: MIC against veterinary bacteria; settings: Diagnostic Sensitivity Test Agar, 18 hours, 37° C.
Experimental: as §1

[6] = test system: Strep. suis (group D) SPS11; test: MIC against veterinary bacteria; settings: Diagnostic Sensitivity Test Agar, 18 hours, 37° C.
Experimental: as §1

Bacillus subtilis 6633 = test: MIC against human bacteria; settings: nutrient agar, 5% chocolated horse blood, 18 hours, 37° C.
Experimental: (§2) The values were determined by serial dilutions in nutrient agar with 5% chocolated horse blood after incubations for 18 hours at 37° C.

[7] = test system: Corynebacterium xerosis 9755; test: MIC against human bacteria; settings: nutrient agar, 5% chocolated horse blood, 18 hours, 37° C., read-out: MIC
Experimental: as §2

E. coli ESS = test: MIC against human bacteria; settings: nutrient agar, 5% chocolated horse blood, 18 hours, 37° C.
Experimental: as §2

E. coli NCTC 10418 [8] = test: MIC against human bacteria; settings: Escherichia coli, NCTC10418, nutrient agar, 5% chocolated horse blood, 18 hours, 37° C., read-out: MIC
Experimental: as §2

[9] = test system: Haemophilus influenzae Q1; test: MIC against human bacteria; settings: Haemophilus influenzae, Q1, 18 h, nutrient agar, 5% chocolated horse blood, 37° C.
Experimental: as §2

[10] = test system: Haemophilus influenzae Wy21; test: MIC against human bacteria; settings: Haemophilus influenzae, WY21, 18 h, nutrient agar, 5% chocolated horse blood, 37° C.
Experimental: as §2

K. aerogenes A = test: MIC against human bacteria; settings: Klebsiella aerogenes, nutrient agar, 5% chocolated horse blood, 18 hours, 37° C., read-out: MIC
Experimental: as §2

[11] = test system: Neisseria catarrhalis 1502; test: MIC against human bacteria; settings: nutrient agar, 5% chocolated horse blood, 18 hours, 37° C.
Experimental: as §2

P. mirabilis 889 = test: MIC against human bacteria; settings: Proteus mirabilis, nutrient agar, 5% chocolated horse blood, 18 hours, 37° C., read-out: MIC
Experimental: as §2

Past. multocida 1633 = test: MIC against human bacteria; settings: nutrient agar, 5% chocolated horse blood, 18 hours, 37° C.
Experimental: as §2

[12] = test system: Ps. aeruginosa NCTC 10662; test: MIC against human bacteria; settings: Pseudomonas aeruginosa, NCTC10662, nutrient agar, 5% chocolated horse blood, 18 hours, 37° C., read-out: MIC
Experimental: as §2

Sarcina lutea 8340 = test: MIC against human bacteria; settings: Micrococcus luteus, nutrient agar, 5% chocolated horse blood, 18 hours, 37° C., read-out: MIC
Experimental: as §2

Staph. aureus Oxford [13] = test: MIC against human bacteria; settings: nutrient agar, 5% chocolated horse blood, 18 hours, 37° C.
Experimental: as §2

Staph. aureus Russell = test: MIC against human bacteria; settings: nutrient agar, 5% chocolated horse blood, 18 hours, 37° C.
Experimental: as §2

Staph. aureus W2827 = test: MIC against human bacteria; settings: nutrient agar, 5% chocolated horse blood, 18 hours, 37° C.
Experimental: as §2

Strep. 2788-B = test: MIC against human bacteria; settings: nutrient agar, 5% chocolated horse blood, 18 hours, 37° C.
Experimental: as §2

Strep. 641848-C = test: MIC against human bacteria; settings: nutrient agar, 5% chocolated horse blood, 18 hours, 37° C.
Experimental: as §2

Strep. faecalis I = test: MIC against human bacteria; settings: Enterococcus faecalis, nutrient agar, 5% chocolated horse blood, 18 hours, 37° C., read-out: MIC
Experimental: as §2

Strep. pneumoniae CN33 = test: MIC against human bacteria; settings: nutrient agar, 5% chocolated horse blood, 18 hours, 37° C.
Experimental: as §2

[14] = test system: Strep. pyrogenes R80/421-A; test: MIC against human bacteria; settings: nutrient agar, 5% chocolated horse blood, 18 hours, 37° C.
Experimental: as §2

Work on CCOC(=O)C(F)=C(C)CC1OCC(CC2OC2C(C)C(C)O)C(O)C1O [Example 1, Ethyl-4-[5S-(2S,3S-epoxy-5S-hydroxy-4S-methylhexyl)-3R, 4R-dihydroxytetrahydropyran-2S-yl]-2-fluoro-3-methylbut-2(Z)-enoate] yielded an MIC (M. suipneumoniae HK(2)) of 0.5 µg/mL (≈ 1.28 µM), an MIC [1] of 0.5 µg/mL (≈ 1.28 µM) and an MIC (M. suipneumoniae LABER) of 0.25 µg/mL (≈ 0.64 µM). The MIC [2] was 0.5 µg/mL (≈ 1.28 µM), the MIC (M. hyorhinis ATCC 23234) was 0.25 µg/mL (≈ 0.64 µM) and the MIC (M. gallisepticum S6) was 10 µg/mL (≈ 25.6 µM). The MIC (Bord. bronchiseptica B09) was 20.0 µg/mL (≈ 51.2 µM), the MIC [3] was 80 µg/mL (≈ 205 µM) and the MIC (E. coli E1) was greater than 80 µg/mL. It also gave an MIC (E. coli NCTC 10418 [4]) greater than 80 µg/mL, an MIC (Past. haemolytica PA5) of 5.0 µg/mL (≈ 12.8 µM) and an MIC (Past. multocida PA1) of 1.3 µg/mL (≈ 3.33 µM). It also gave an MIC (Past. multocida PA2) of 0.63 µg/mL (≈ 1.61 µM), an MIC (S. dublin S7) greater than 80 µg/mL and an MIC (S. typhimurium S18) greater than 80 µg/mL. For the same compound, the MIC (Staph. aureus B4) was 0.63 µg/mL (≈ 1.61 µM), the MIC (Staph. aureus Oxford [5]) was 0.63 µg/mL (≈ 1.61 µM) and the MIC (Strep. agalactiae SPA1) was 2.5 µg/mL (≈ 6.4 µM). The MIC [6] was 20.0 µg/mL (≈ 51.2 µM), the MIC (Bacillus subtilis 6633) was 2.5 µg/mL (≈ 6.4 µM) and the MIC [7] was greater than 100 µg/mL. The MIC (E. coli ESS) was 5.0 µg/mL (≈ 12.8 µM), the MIC (E. coli NCTC 10418 [8]) was greater than 100 µg/mL and the MIC [9] was 0.1 µg/mL (≈ 0.256 µM). For the same compound, the MIC [10] was 0.25 µg/mL (≈ 0.64 µM), the MIC (K. aerogenes A) was greater than 100 µg/mL and the MIC [11] was 0.5 µg/mL (≈ 1.28 µM). The MIC (P. mirabilis 889) was greater than 100 µg/mL, the MIC (Past. multocida 1633) was 1.0 µg/mL (≈ 2.56 µM) and the MIC [12] was greater than 100 µg/mL. It also gave an MIC (Sarcina lutea 8340) greater than 100 µg/mL, an MIC (Staph. aureus Oxford [13]) of 1.0 µg/mL (≈ 2.56 µM) and an MIC (Staph. aureus Russell) of 1.0 µg/mL (≈ 2.56 µM). The MIC (Staph. aureus W2827) was 1.0 µg/mL (≈ 2.56 µM), the MIC (Strep. 2788-B) was 10.0 µg/mL (≈ 25.6 µM) and the MIC (Strep. 641848-C) was 5.0 µg/mL (≈ 12.8 µM). It also gave an MIC (Strep. faecalis I) greater than 100 µg/mL, an MIC (Strep. pneumoniae CN33) of 2.5 µg/mL (≈ 6.4 µM) and an MIC [14] of 1.0 µg/mL (≈ 2.56 µM).
